Results published in ChEMBL document CHEMBL4680347, “Discovery of novel 1,3,5-triazine derivatives as potent inhibitor of cervical cancer via dual inhibition of PI3K/mTOR” (Bioorg Med Chem, 2021).

How the values were obtained:
[1] = molecular target: Phosphatidylinositol 4,5-bisphosphate 3-kinase catalytic subunit alpha isoform (Homo sapiens, UniProt P42336); test: Inhibition of PI3Kalpha (unknown origin) measured after 1 hr by ADP-glo plus luminescence assay
[2] = molecular target: Serine/threonine-protein kinase mTOR (Homo sapiens, UniProt P42345); test: Inhibition of mTOR (unknown origin) measured after 45 mins by LANCE Ultra assay

Phosphatidylinositol 4,5-bisphosphate 3-kinase catalytic subunit alpha isoform, sequence (P42336 whole entry, canonical isoform): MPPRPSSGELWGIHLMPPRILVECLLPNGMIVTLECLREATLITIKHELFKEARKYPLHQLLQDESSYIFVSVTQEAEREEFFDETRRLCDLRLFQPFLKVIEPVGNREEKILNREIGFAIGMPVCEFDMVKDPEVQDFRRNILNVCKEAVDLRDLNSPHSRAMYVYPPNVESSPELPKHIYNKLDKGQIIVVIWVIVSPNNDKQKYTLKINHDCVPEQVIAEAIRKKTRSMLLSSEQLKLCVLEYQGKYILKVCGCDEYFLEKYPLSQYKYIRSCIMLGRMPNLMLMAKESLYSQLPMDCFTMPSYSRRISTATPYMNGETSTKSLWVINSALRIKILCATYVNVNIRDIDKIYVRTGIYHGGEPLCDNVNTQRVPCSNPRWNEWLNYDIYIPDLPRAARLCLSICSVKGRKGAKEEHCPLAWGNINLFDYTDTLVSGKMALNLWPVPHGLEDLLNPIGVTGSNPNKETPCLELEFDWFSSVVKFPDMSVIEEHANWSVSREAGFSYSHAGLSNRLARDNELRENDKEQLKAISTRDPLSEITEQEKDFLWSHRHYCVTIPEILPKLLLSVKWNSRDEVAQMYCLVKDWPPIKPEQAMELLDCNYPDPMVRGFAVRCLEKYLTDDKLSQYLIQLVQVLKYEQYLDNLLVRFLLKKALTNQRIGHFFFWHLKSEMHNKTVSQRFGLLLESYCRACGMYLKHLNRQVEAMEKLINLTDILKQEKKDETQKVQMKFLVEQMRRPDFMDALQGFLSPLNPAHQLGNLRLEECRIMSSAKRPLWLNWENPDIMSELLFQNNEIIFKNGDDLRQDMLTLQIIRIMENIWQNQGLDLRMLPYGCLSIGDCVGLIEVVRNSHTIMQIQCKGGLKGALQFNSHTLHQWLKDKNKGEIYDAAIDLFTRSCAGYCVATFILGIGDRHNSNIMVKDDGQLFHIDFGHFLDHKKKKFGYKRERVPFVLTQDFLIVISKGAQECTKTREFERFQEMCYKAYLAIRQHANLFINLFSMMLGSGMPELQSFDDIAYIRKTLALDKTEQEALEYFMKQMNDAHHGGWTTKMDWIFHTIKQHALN

Structure (SMILES) | IC50 [1] [nM] | IC50 [2] [nM]
O=[N+]([O-])c1cccc(S(=O)(=O)N2CCN(c3nc(NCCN4CCOCC4)nc(N4CCOCC4)n3)CC2)c1 | 38.9 | 76.8
O=S(=O)(c1ccccc1F)N1CCN(c2nc(NCCN3CCOCC3)nc(N3CCOCC3)n2)CC1 | 123 | 98.3
O=S(=O)(c1cccc(F)c1)N1CCN(c2nc(NCCN3CCOCC3)nc(N3CCOCC3)n2)CC1 | 110 | 93.7
O=S(=O)(c1ccc(F)cc1)N1CCN(c2nc(NCCN3CCOCC3)nc(N3CCOCC3)n2)CC1 | 88 | 35.3

Now those with a lower IC50 [1], led by results:

IC50 [1] [nM] | IC50 [2] [nM] | Structure (SMILES)
33.6 | 41.8 | O=[N+]([O-])c1ccc(S(=O)(=O)N2CCN(c3nc(NCCN4CCOCC4)nc(N4CCOCC4)n3)CC2)cc1
30.9 | 28.2 | O=S(=O)(c1ccc(Cl)cc1)N1CCN(c2nc(NCCN3CCOCC3)nc(N3CCOCC3)n2)CC1
24.6 | 22.2 | COc1cccc(S(=O)(=O)N2CCN(c3nc(NCCN4CCOCC4)nc(N4CCOCC4)n3)CC2)c1
18.7 |  | Cc1cccc(S(=O)(=O)N2CCN(c3nc(NCCN4CCOCC4)nc(N4CCOCC4)n3)CC2)c1
8.9 | 20.8 | COc1ccc(S(=O)(=O)N2CCN(c3nc(NCCN4CCOCC4)nc(N4CCOCC4)n3)CC2)cc1
